Article PMC12026006, “Phosphodiesterase Inhibition and Immunotropic Activity of Dipyridamole Dynamic Derivatives” (Current Issues in Molecular Biology, 2025)
Read-outs that look alike come from different tables or passages of the source.

Biological target: T1, cAMP-phosphodiesterase (PDE)
T1 construct: gene PDE1A; enzyme of commercial Abcam colorimetric PDE kit
Assay: colorimetric PDE activity kit ab139460, plate reader […] nm
Type: biochemical
Conditions: two-range dilution, measuring error 10%, isoenzyme not told, read-out: IC50 **^1

| IC50 | IC50 (control from kit) | Compound |
| --- | --- | --- |
| 5 µM |  | OCCN(CCO)c1nc(N2CCCCC2)c2nc(N(CCO)CCO)nc(N3CCCCC3)c2n1 [10 (D10), 2,6-bis-diethanolamino-4,8-dipiperidinopyrimido(5,4-d)-pyrimidine] |
|  | 5 µM | CC(C)Cn1c(=O)n(C)c(=O)c2[nH]cnc21 [compound 11, 3-isobutyl-1-methylxanthine] |
